Assays:
[1] = tested on: ob/ob mice; experiment: Impact of CB2 antagonist on epididymal fat inflammatory gene expression in obese ob/ob mice (quantitative RT-PCR); type: in vivo, mouse; settings: 1 mg/kg daily intraperitoneal over 17 days, six week-old ob/ob mice
Experimental: Animals and Experimental Design: Experimental protocols were conducted in accordance with French government policies (Services véterinaires de la Santé et de la production animale, Ministère français de l'Agriculture). Animals were housed under 12 hours of light/12 hours of dark cycle, in a temperature-controlled environment. The impact of the CB2 antagonist AM630 was evaluated in 6 week-old male obese Lep^Ob/Lep^Ob male mice (ob/ob) and lean Lep^Ob+/Lep^Ob counterparts (ob+/ob). Mice received an 17 day-course of daily intraperitoneal injection of 1 mg/kg AM630 (n=10 ob/ob and n=5 ob+/ob) or vehicle (n=8 ob/ob and n=5 ob+/ob). AM630 (Tocris) was freshly dissolved in a vehicle solution containing 1 drop of Tween 80 in 0.1 ml dimethylsulfoxide (DMSO), sonicated, and further diluted 50 times in NaCl 9‰. Body weight and food intake were measured daily. Mice were sacrificed after overnight fasting. White epididymal adipose tissue was removed, weighed and either fixed in buffered formalin, or snap frozen in liquid nitrogen. All samples were stored at −80° C. until use.
RNA preparation and RT-PCR: Total RNA was extracted from mice epididymal fat using RNeasy® Lipid Tissue Mini kit (QIAGEN). Quantitative RT-PCR was carried out on a Light Cycler (Roche Diagnostics), as previously described.
The PCR amplified products were analyzed on a 2% agarose gel, and sequenced.

[2] = tested on: overweight and obese patients; settings: 4 clinical studies, more than 6000 overweight and obese patients; cited from earlier work

## COc1ccc(C(=O)c2c(C)n(CCN3CCOCC3)c3cc(I)ccc23)cc1 [AM 630]
[1]; epididymal fat, vs vehicle
  fat inflammatory response: reduced
[1]; vs vehicle (FIG. 16, p<0.05)
  F4/80 mRNA expression in epididymal fat: lesser induction
  MCP-1 mRNA expression in epididymal fat: lesser induction
  TNF-alpha mRNA expression in epididymal fat: lesser induction

## Cc1c(C(=O)NN2CCCCC2)nn(-c2ccc(Cl)cc2Cl)c1-c1ccc(Cl)cc1 [rimonabant, Rimonabant]
[2]
  efficacy with regard to weight loss and reduction of the associated cardiometabolic risks: consistent efficacy

Reference: US8575125B2, “Selective inhibitors of CB2 receptor expression and/or activity for the treatment of obesity and obesity-related disorders” (Institut National de la Sante et de la Recherche Medicale …, priority 2007, dated 2013)
